{"source": "paper PMC7997574", "about": "“Lead Optimization of Benzoxazolone Carboxamides as Orally Bioavailable and CNS Penetrant Acid Ceramidase Inhibitors” (Journal of Medicinal Chemistry, 2020)", "key": {"[1]": {"assay": "In vitro plasma stability study", "assay_type": "in vitro ADME", "details": "mouse plasma; read-out: m-plasma t1/2", "outline": "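Compound at 2 μM final incubated in mouse plasma at 37 °C for up to 120 min, sampled at 0–120 min and quenched in cold MeCN with internal standard. Remaining compound quantified by LC/MS/MS; t1/2 fitted from response vs time; mean of ≥2 experiments.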"}, "GCase": {"target": "T1, GCase (Homo sapiens, UniProt P04062)", "T1 construct": "5 nM purified human full-length GCase enzyme; made in house", "T1 sequence (P04062 40-536)": "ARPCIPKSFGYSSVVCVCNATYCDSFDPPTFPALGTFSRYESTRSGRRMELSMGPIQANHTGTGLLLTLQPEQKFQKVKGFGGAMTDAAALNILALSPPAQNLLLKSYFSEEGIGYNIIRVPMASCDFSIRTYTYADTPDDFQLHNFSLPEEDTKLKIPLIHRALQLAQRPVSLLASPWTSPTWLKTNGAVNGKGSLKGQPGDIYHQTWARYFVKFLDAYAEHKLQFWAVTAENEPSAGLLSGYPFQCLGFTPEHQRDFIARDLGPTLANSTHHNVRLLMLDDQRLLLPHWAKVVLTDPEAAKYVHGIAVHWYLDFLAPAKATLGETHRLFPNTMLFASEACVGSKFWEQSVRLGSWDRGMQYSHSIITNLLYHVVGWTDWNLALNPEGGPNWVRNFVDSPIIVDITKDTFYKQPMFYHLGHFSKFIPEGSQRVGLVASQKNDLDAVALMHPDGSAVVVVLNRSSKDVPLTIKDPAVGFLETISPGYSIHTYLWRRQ", "assay": "In vitro hGCase assay", "assay_type": "biochemical", "details": "1 and 10 μM", "experimental": "hGCase activity measurement was conducted using the fluorogenic substrate 4-methylumbelliferyl-β-D-[…] hydrate (4-MUG, Merck) at 1 mM and 5 nM purified human full-length GCase enzyme and 50 nM of its natural activator SapC (both GCase and SapC were purified in house) in a buffer containing 50 mM citric acid, 174 mM K2HPO4, 15 μM phosphatidylserine, and 0.32 mM Triton X-100 at pH 4.7 in a final volume of 50 μL. The reaction mixtures were incubated for 15 min at rt and stopped by the addition of 150 μL of 1 M glycine at pH 12.5. The cleavage of 4-MUG was monitored by a plate reader at excitation/emission wavelengths of 365/440 nm. The average hGCase activity was calculated from two independent experiments, each performed in two technical replicates."}, "[2]": {"assay": "In vitro microsomal stability study", "assay_type": "in vitro ADME", "details": "mouse liver microsomes", "outline": "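Test compound at 4.6 μM final was incubated at 37 °C with mouse liver microsomes in 0.1 M Tris HCl (pH 7.4), with an NADPH/G6P/G6PDH/MgCl2 cofactor system, and sampled at 0–60 min. Parent remaining relative to t = 0 was measured by LC/MS/MS. t1/2 came from one-phase decay regression, as the mean of at least two independent experiments.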"}, "[3]": {"target": "T2, monoacylglycerol lipase (MAGL) (Homo sapiens, UniProt Q99685)", "T2 construct": "purchased Cayman Scientific item; 705192", "T2 sequence (Q99685 1-303)": "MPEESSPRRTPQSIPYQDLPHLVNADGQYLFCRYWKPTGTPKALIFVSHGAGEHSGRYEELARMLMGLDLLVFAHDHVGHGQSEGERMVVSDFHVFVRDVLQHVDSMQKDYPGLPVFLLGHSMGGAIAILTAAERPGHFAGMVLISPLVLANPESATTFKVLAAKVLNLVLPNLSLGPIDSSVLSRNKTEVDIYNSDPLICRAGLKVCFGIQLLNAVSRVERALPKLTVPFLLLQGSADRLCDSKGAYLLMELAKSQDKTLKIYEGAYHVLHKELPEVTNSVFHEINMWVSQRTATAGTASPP", "assay": "In vitro hMAGL colorimetric assay", "assay_type": "biochemical", "details": "1 and 10 μM", "experimental": "The colorimetric assay to measure hMAGL activity was performed using an assay kit provided by Cayman Scientific (item. 705192), according to the manufacturer’s instructions. Briefly, in vitro activity was measured in 96-well plates, and DMSO was used as solvent. 10 μL of DMSO (100% initial activity wells: 100% IA) or compounds at two concentrations (1 and 10 μM) were preincubated for 5 min at rt with 150 μL of diluted assay buffer (10 mM Tris HCl, pH 7.2, containing 1 mM EDTA) containing hMAGL. In blank wells, 160 μL of the diluted assay buffer and 10 μL of DMSO were added. The reactions were initiated by adding 10 μL of MAGL substrate to all the wells, and plates were incubated for 10 min at rt. Absorbance values were measured at 405 nm, and percent inhibition was calculated by the following method: 100 – (Inhibitor/100% IA) × 100. The reported percentages of inhibition are the mean of at least three independent experiments performed in three technical replicates."}}, "note": "Values joined by “and” are separate entries in the source; they are usually repeats but may differ in a detail not shown here. Equal values may be shown once."}
{"molecule": "CC(C)CNC(=O)n1c(=O)oc2cc(C3CCN(C)CC3)ccc21", "note": "[22m, N-Isobutyl-6-(1-methyl-4-piperidyl)-2-oxo-1,3-benzoxazole-3-carboxamide]", "values": [{"measurement": "half-life at 2 µM", "setting": "[1]", "result": 1.33, "unit": "h"}, {"measurement": "half-life at 2 μM", "setting": "[1]", "result": "> 1", "unit": "h"}, {"measurement": "effect on activity of GCase", "setting": "GCase", "result": "no effect"}, {"measurement": "m-LM [% at 60 min]", "setting": "[2]; % remaining at 60 min", "result": "76% and 80%"}, {"measurement": "half-life at 4.6 μM", "setting": "[2]; pH 7.4, read-out: m-LM t1/2", "result": "> 1", "unit": "h"}, {"measurement": "effect on MAGL", "setting": "[3]", "result": "no effect"}]}
